Data taken from paper PMC10967822, “Antimicrobial Indole-3-Carboxamido-Polyamine Conjugates Target Bacterial Membranes and Are Antibiotic Potentiators” (Biomolecules, 2024).
In brackets after ≈: the same amount, converted by molar mass.

What was measured:
P. aeruginosa ATCC 27853 [1] = experiment: MIC, broth dilution, P. aeruginosa; format: cell-based, Pseudomonas aeruginosa; conditions: Pseudomonas aeruginosa, ATCC27853; P. aeruginosa ATCC 27853, 18 h; read-out: MIC Pa
E. coli ATCC 25922 [2] = experiment: MIC, broth dilution, E. coli; format: cell-based, Escherichia coli; conditions: Escherichia coli, ATCC25922; E. coli ATCC 25922, 18 h
C. albicans ATCC 90028 = experiment: Antifungal MIC (CO-ADD), C. albicans; format: cell-based; conditions: Candida albicans, ATCC90028, top dose 32 µg/mL
How it was run: (§1)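 MIC for C. neoformans determined by OD570–600 following a further 3 h with resazurin (0.006% final), whereas C. albicans was read directly at OD530. Both grown static in YNB broth at 2.5 × 10^3 CFU/mL final inoculum, 35 °C for 36 h, from colonies cultured on YPD agar 3 days at 30 °C.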

P. aeruginosa ATCC 27853 [3] = experiment: Doxycycline potentiation against P. aeruginosa; format: cell-based, Pseudomonas aeruginosa; conditions: doxycycline at 2 µg/mL (4.5 µM); for Dox/Pa fold-change (intrinsic MIC / combination MIC): P. aeruginosa ATCC 27853; for Dox/Pa: concentration required to restore doxycycline activity (combination MIC): P. aeruginosa ATCC 27853, mean n = 3
Description: (§2) These measurements were independently repeated in triplicate.

S. aureus ATCC 25923 = experiment: MIC, broth dilution, S. aureus; format: cell-based, Staphylococcus aureus; conditions: Staphylococcus aureus, ATCC25923; S. aureus ATCC 25923, 18 h; read-out: MIC Sa
A. baumannii ATCC 19606 = experiment: MIC, broth microdilution (CO-ADD), A. baumannii; format: cell-based, Acinetobacter baumannii; conditions: Acinetobacter baumannii, ATCC19606, top dose 32 µg/mL
[4] = test system: C. neoformans ATCC 208821; experiment: Antifungal MIC (CO-ADD), C. neoformans; format: cell-based; conditions: Cryptococcus neoformans, ATCC208821, top dose 32 µg/mL
How it was run: as §1

[5] = test system: K. pneumoniae ATCC 700603; experiment: MIC, broth microdilution (CO-ADD), K. pneumoniae; conditions: top dose 32 µg/mL
[6] = Cytotoxicity assay (resazurin); format: cell-based; conditions: human, HEK293 cells, mean n = 2
E. coli ATCC 25922 [7] = experiment: Erythromycin potentiation against E. coli; format: cell-based, Escherichia coli; conditions: erythromycin at 2 µg/mL (2.7 µM); for Erythro/Ec fold-change (intrinsic MIC / combination MIC): E. coli; for Erythro/Ec: concentration required to restore erythromycin activity (combination MIC): mean n = 3
Description: as §2

MRSA ATCC 43300 = experiment: MIC, broth microdilution (CO-ADD), MRSA; format: cell-based, methicillin-resistant S. aureus; conditions: Staphylococcus aureus; MRSA ATCC 43300; top dose 32 µg/mL; read-out: MIC MRSA
human red blood cells = experiment: Hemolytic assay; format: cell-based; conditions: 10% hemolytic activity, mean n = 2
How it was run: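 Compounds were applied to saline-washed human red blood cells at 0.5 × 10^8 cells/mL, 37 °C, 1 h. Lysis was measured by supernatant absorbance at 405 nm, and concentrations giving 10% and 50% haemolysis were obtained by variable-slope curve fitting.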

COc1cccc2c(C(=O)NCCCNCCCCCCCCNCCCNC(=O)c3c[nH]c4c(OC)cccc34)c[nH]c12 [Compound 17d]
MIC (P. aeruginosa ATCC 27853 [1]): > 240 µM | MIC (E. coli ATCC 25922 [2]): 240 µM (≈ 145 µg/mL) | MIC (C. albicans ATCC 90028): > 38 µM | Dox/Pa fold-change (intrinsic MIC / combination MIC) (P. aeruginosa ATCC 27853 [3]): > 4 fold | Dox/Pa: concentration required to restore doxycycline activity (combination MIC) (P. aeruginosa ATCC 27853 [3]): 60.0 µM | MIC (S. aureus ATCC 25923): 120 µM (≈ 72.6 µg/mL) | MIC (A. baumannii ATCC 19606): > 38 µM | MIC [4]: ≤ 0.3 µM | MIC Kp [5]: >38 µM | IC50 at 20 h [6]: > 38 µM | Erythro/Ec fold-change (intrinsic MIC / combination MIC) (E. coli ATCC 25922 [7]): 2 fold | Erythro/Ec: concentration required to restore erythromycin activity (combination MIC) (E. coli ATCC 25922 [7]): 120 µM | MIC (MRSA ATCC 43300): ≤ 0.3 µM | Hemolysis HC10 (human red blood cells): >38 µM

COc1cccc2c(C(=O)NCCCNCCCCCCCCCCNCCCNC(=O)c3c[nH]c4c(OC)cccc34)c[nH]c12.O=C(O)C(F)(F)F.O=C(O)C(F)(F)F [Compound 17e]
MIC (P. aeruginosa ATCC 27853 [1]): > 232 µM | MIC (E. coli ATCC 25922 [2]): > 232 µM | MIC (C. albicans ATCC 90028): > 37 µM | Dox/Pa fold-change (intrinsic MIC / combination MIC) (P. aeruginosa ATCC 27853 [3]): > 4 fold | Dox/Pa: concentration required to restore doxycycline activity (combination MIC) (P. aeruginosa ATCC 27853 [3]): 58.1 µM | MIC (S. aureus ATCC 25923): 232 µM | MIC (A. baumannii ATCC 19606): > 37 µM | MIC [4]: ≤ 0.29 µM | MIC Kp [5]: >37 µM | IC50 at 20 h [6]: > 37 µM | Erythro/Ec fold-change (intrinsic MIC / combination MIC) (E. coli ATCC 25922 [7]): 1 fold | Erythro/Ec: concentration required to restore erythromycin activity (combination MIC) (E. coli ATCC 25922 [7]): > 232 µM | MIC (MRSA ATCC 43300): ≤ 0.29 µM | Hemolysis HC10 (human red blood cells): >37 µM

COc1cccc2c(C(=O)NCCCNCCCCCCCCCCCCNCCCNC(=O)c3c[nH]c4c(OC)cccc34)c[nH]c12.O=C(O)C(F)(F)F.O=C(O)C(F)(F)F [Compound 17f]
MIC (P. aeruginosa ATCC 27853 [1]): 225 µM | MIC (E. coli ATCC 25922 [2]): 28.1 µM | MIC (C. albicans ATCC 90028): 4.5 µM | Dox/Pa fold-change (intrinsic MIC / combination MIC) (P. aeruginosa ATCC 27853 [3]): 4 fold | Dox/Pa: concentration required to restore doxycycline activity (combination MIC) (P. aeruginosa ATCC 27853 [3]): 56.2 µM | MIC (S. aureus ATCC 25923): 7.03 µM | MIC (A. baumannii ATCC 19606): > 36 µM | MIC [4]: ≤ 0.28 µM | MIC Kp [5]: >36 µM | IC50 at 20 h [6]: > 36 µM | Erythro/Ec fold-change (intrinsic MIC / combination MIC) (E. coli ATCC 25922 [7]): 0.5 fold | Erythro/Ec: concentration required to restore erythromycin activity (combination MIC) (E. coli ATCC 25922 [7]): 56.2 µM | MIC (MRSA ATCC 43300): ≤ 0.28 µM | Hemolysis HC10 (human red blood cells): >36 µM

Cc1cccc2c(C(=O)NCCCNCCCCCCNCCCNC(=O)c3c[nH]c4c(C)cccc34)c[nH]c12 [Compound 18b]
MIC (P. aeruginosa ATCC 27853 [1]): > 259 µM | MIC (E. coli ATCC 25922 [2]): 129 µM (≈ 70.3 µg/mL) | MIC (C. albicans ATCC 90028): > 41 µM | Dox/Pa fold-change (intrinsic MIC / combination MIC) (P. aeruginosa ATCC 27853 [3]): > 8 fold | Dox/Pa: concentration required to restore doxycycline activity (combination MIC) (P. aeruginosa ATCC 27853 [3]): 32.4 µM | MIC (S. aureus ATCC 25923): 129 µM (≈ 70.3 µg/mL) | MIC (A. baumannii ATCC 19606): > 41 µM | MIC [4]: ≤ 0.32 µM | MIC Kp [5]: >41 µM | IC50 at 20 h [6]: > 41 µM | Erythro/Ec fold-change (intrinsic MIC / combination MIC) (E. coli ATCC 25922 [7]): 4 fold | Erythro/Ec: concentration required to restore erythromycin activity (combination MIC) (E. coli ATCC 25922 [7]): 32.4 µM | MIC (MRSA ATCC 43300): > 41 µM | Hemolysis HC10 (human red blood cells): >41 µM

Cc1cccc2c(C(=O)NCCCNCCCCCCCNCCCNC(=O)c3c[nH]c4c(C)cccc34)c[nH]c12 [Compound 18c]
MIC (P. aeruginosa ATCC 27853 [1]): 254 µM (≈ 142 µg/mL) | MIC (E. coli ATCC 25922 [2]): > 254 µM | MIC (C. albicans ATCC 90028): > 41 µM | Dox/Pa fold-change (intrinsic MIC / combination MIC) (P. aeruginosa ATCC 27853 [3]): 16 fold | Dox/Pa: concentration required to restore doxycycline activity (combination MIC) (P. aeruginosa ATCC 27853 [3]): 15.9 µM | MIC (S. aureus ATCC 25923): > 254 µM | MIC (A. baumannii ATCC 19606): > 41 µM | MIC [4]: ≤ 0.32 µM | MIC Kp [5]: >41 µM | IC50 at 20 h [6]: > 41 µM | Erythro/Ec fold-change (intrinsic MIC / combination MIC) (E. coli ATCC 25922 [7]): 1 fold | Erythro/Ec: concentration required to restore erythromycin activity (combination MIC) (E. coli ATCC 25922 [7]): > 254 µM | MIC (MRSA ATCC 43300): ≤ 0.32 µM | Hemolysis HC10 (human red blood cells): >41 µM

Cc1cccc2c(C(=O)NCCCNCCCCCCCCNCCCNC(=O)c3c[nH]c4c(C)cccc34)c[nH]c12 [Compound 18d]
MIC (P. aeruginosa ATCC 27853 [1]): 250 µM (≈ 143 µg/mL) | MIC (E. coli ATCC 25922 [2]): > 250 µM | MIC (C. albicans ATCC 90028): > 40 µM | Dox/Pa fold-change (intrinsic MIC / combination MIC) (P. aeruginosa ATCC 27853 [3]): 8 fold | Dox/Pa: concentration required to restore doxycycline activity (combination MIC) (P. aeruginosa ATCC 27853 [3]): 31.2 µM | MIC (S. aureus ATCC 25923): > 250 µM | MIC (A. baumannii ATCC 19606): > 40 µM | MIC [4]: ≤ 0.31 µM | MIC Kp [5]: >40 µM | IC50 at 20 h [6]: > 40 µM | Erythro/Ec fold-change (intrinsic MIC / combination MIC) (E. coli ATCC 25922 [7]): 1 fold | Erythro/Ec: concentration required to restore erythromycin activity (combination MIC) (E. coli ATCC 25922 [7]): 250 µM | MIC (MRSA ATCC 43300): ≤ 0.31 µM | Hemolysis HC10 (human red blood cells): >40 µM

Cc1cccc2c(C(=O)NCCCNCCCCCCCCCCNCCCNC(=O)c3c[nH]c4c(C)cccc34)c[nH]c12 [Compound 18e]
MIC (P. aeruginosa ATCC 27853 [1]): 60.3 µM (≈ 36.2 µg/mL) | MIC (E. coli ATCC 25922 [2]): 30.2 µM (≈ 18.1 µg/mL) | MIC (C. albicans ATCC 90028): 4.83 µM (≈ 2.9 µg/mL) | Dox/Pa fold-change (intrinsic MIC / combination MIC) (P. aeruginosa ATCC 27853 [3]): 4 fold | Dox/Pa: concentration required to restore doxycycline activity (combination MIC) (P. aeruginosa ATCC 27853 [3]): 15.1 µM | MIC (S. aureus ATCC 25923): 30.2 µM (≈ 18.1 µg/mL) | MIC (A. baumannii ATCC 19606): > 39 µM | MIC [4]: ≤ 0.3 µM | MIC Kp [5]: >39 µM | IC50 at 20 h [6]: > 39 µM | Erythro/Ec fold-change (intrinsic MIC / combination MIC) (E. coli ATCC 25922 [7]): 2 fold | Erythro/Ec: concentration required to restore erythromycin activity (combination MIC) (E. coli ATCC 25922 [7]): 15.1 µM | MIC (MRSA ATCC 43300): ≤ 0.3 µM | Hemolysis HC10 (human red blood cells): >39 µM

Cc1cccc2c(C(=O)NCCCNCCCCCCCCCCCCNCCCNC(=O)c3c[nH]c4c(C)cccc34)c[nH]c12.O=C(O)C(F)(F)F.O=C(O)C(F)(F)F [Compound 18f]
MIC (P. aeruginosa ATCC 27853 [1]): 117 µM | MIC (E. coli ATCC 25922 [2]): 117 µM | MIC (C. albicans ATCC 90028): ≤ 0.29 µM | Dox/Pa fold-change (intrinsic MIC / combination MIC) (P. aeruginosa ATCC 27853 [3]): 4 fold | Dox/Pa: concentration required to restore doxycycline activity (combination MIC) (P. aeruginosa ATCC 27853 [3]): 29.2 µM | MIC (S. aureus ATCC 25923): 117 µM | MIC (A. baumannii ATCC 19606): 9.33 µM | MIC [4]: ≤ 0.29 µM | MIC Kp [5]: >37 µM | IC50 at 20 h [6]: > 37 µM | Erythro/Ec fold-change (intrinsic MIC / combination MIC) (E. coli ATCC 25922 [7]): 1 fold | Erythro/Ec: concentration required to restore erythromycin activity (combination MIC) (E. coli ATCC 25922 [7]): 116.7 µM | MIC (MRSA ATCC 43300): ≤ 0.29 µM | Hemolysis HC10 (human red blood cells): >37 µM
